# According to patent EP3925626A1, “LIPOPEPTIDE CONJUGATES AND THEIR SALTS, METHOD OF MANUFACTURE OF LIPOPEPTIDE CONJUGATES AND THEIR SALTS, PHARMACEUTICAL COMPOSITION COMPRISING A LIPOPEPTIDE CONJUGATE AND ITS SALTS FOR THE TREATMENT OF CHRONIC WOUNDS” (priority 2020, dated 2021):
# Where two headings read alike, the source gives them in different places. Where a SMILES comes first, the peptide text is derived from it. [ ]: non-standard residue; d: D form. The star is where a group is joined. Hyp = O=C(O)[C@@H]1C[C@@H](O)CN1; Lauroyl = CCCCCCCCCCCC(=O)*
# What was measured:
# primary fibroblast [1] = assay type: cell-based
# Experimental: (§1) The cytotoxicity of lipopeptide conjugates or their pharmaceutically acceptable salts was assessed in immortalized human cell lines, human primary fibroblast cells independently, separately using two assays, XTT and LDH. Approximately, 5×10^3 fibroblast human cell line BR1N, human primary fibroblast cells or HaCaT cells in 200 µl DMEM supplemented with 10% FCS per well were seeded in 96-well plate and incubated for 24 h (37°C, 5%CO2). Culture medium was replaced with fresh DMEM, and then the cells were exposed to lipopeptide conjugate or its pharmaceutically acceptable salt solutions administered in DMEM at the final concentration in the range from 1 µg mL^-1 to 1000 µg mL^-1. In the experiments, cells in DMEM medium treated with 0.9% solution of Triton X-100 were used as positive control (K+, 100% mortality), untreated cells in DMEM medium were assayed as a negative control (K-). After incubation, cytotoxicity was assessed by measuring the activity of the intracellular cytoplasmic enzyme - lactate dehydrogenase (LDH) and decrease in cell viability measured by a decrease in mitochondria metabolism activity to XTT reduction. The rapidly release of LDH enzyme into the cell culture supernatant is correlated with the plasma membrane damage and cell death. The LDH enzyme release was measured after removal of the supernatant, colorimetrically by incubation with reagent containing 2[4-iodophenyl]-3-[4-nitrophenyl]-5-phenyltetrazolium chloride. The absorbance measured at a wavelenght of 490nm using microplate reader Perkin Elmer spectrophotometer was proportional do LDH activity and the number of damaged cells. The XTT test was performed by adding the XTT solution to each test well. After incubation time at 37°C, the absorbance was measured at a wavelenght of 490nm. Average of absorbance measurements from 3 independent experiments was used to estimate the cell death. The mean absorbance from control wells was considered as 0% (negative control) and 100% (positive control) of cell mortality.
# BALB/c mice = test: In vivo full-thickness excision wound healing; set-up: species or system Mus musculus BALB/c mice; settings: preparation 0.1% w/w daily d0÷d10 or 4.0% w/w at d0, d3, d7, d10; versus control
# Experimental: 8-10 week-old female Mus musculus BALB/c mice (purchased from Tri-City Academic Laboratory Animal Centre-Research nad Services Centre) were used in the study. The experiments were carried out in Tri-City Academic Laboratory Animal Centre - Research and Services Centre according to the approved guidelines of Local Ethics Committee of Animal Experimentation in Bydgoszcz (permit No. 31/2018). Mice were housed under standard conditions, with ad libitum access to food pellets and tap water, and kept under control conditions (22±2°C, relative humidity 55±10%, 12/12 light/darck cycle).
# In experiments, mice were divided into groups i.e. control groups (n=6) and experimental groups (n=6). The animals were anesthetized with 3÷5% isoflurane. […] The progress of the wound healing process was assessed according to the defined administration schedule at intervals (d0, d3, d7, d10, d14). […] Wound surfaces were each photographed with a Nikon Coolpix S5100 camera and calculated with the use of Image J. Wound healing (restoration of a full-layer skin) is interpreted as the percentage reduction of the original wound area over time. The process of reepithelization was also assessed, indicating the surface of new epithelium extending. […]
# [2] = test system: human keratinocyte primary culture; test: Keratinocyte proliferation in the wound closure setting; assay type: cell-based; settings: relative to non-stimulated DMEM (K), mean±SD
# HaCaT [3] = test: Cytotoxicity, XTT viability assay (MTT in Table 5); assay type: cell-based, human; settings: MTT (so in the source), 10% decrease in viability, tested 1÷1000 µg/mL
# Experimental: as §1
# human erythrocytes = assay type: cell-based
# Experimental: Hemolytic activity was determined by incubating 2% suspension of erythrocytes from healthy human blood (n=3)) with serial dilutions of each selected lipopeptide conjugates (at concentration range from 1000µg/mL to 10µg/mL). Fresh erythrocytes were collected by centrifugation for 10 min at 500xg, washed three times with PBS and diluted to a concentration of 2% in PBS. Erythrocytes were incubated with lipopeptide conjugate, but also with 1% Triton X-100 (positive control), in PBS (blank) at 37°C for 1 hour. After incubation, the plates were centrifuged at 500×g for 10 min, and the supernatants were transferred to new clean wells. Release of hemoglobin was measured as the absorbance of the supernatants at a wavelength of 540 nm using microplate reader (Victor PerkinElmer). The relative optical density compared to the suspension treated with 1% Triton X-100 was defined as the percentage of hemolysis. The results present HC10, HC50 defined as the lowest concentration of lipopeptide conjugate that induced 10% and 50% cell lysis, respectively. The novel lipopeptide conjuagtes have a lack of hemolytic activity at the wide range of concentrations in relation to their biological effect. These lipopeptide conjugates induced 10% of cell lysis at concentration range from 0.19 to 1.62 mM (Table 6). […]
# primary fibroblast cells = test: In vitro wound healing (closure) assay with IBIDI culture inserts, fibroblast migration; assay type: cell-based, human
# Experimental: In vitro wound healing (closure) assay using IBIDI culture inserts were performed according to literature. Briefly, cell suspension (1,5×10^4) was seeded in Culture-insert 2 well in 70µl of growth medium (DMEM) and cultured for 24 h (37°C, 5%CO2) to form a monolayer. After removal of the Culture-insert, the newly created cell-free gap (wound) was wahed with DMEM followed by PBS. Cell monolayer was also preincubated for 30 min in the presence of mitomycin C (8µg/mL), as a DNA replication and cell proliferation inhibitor. A fresh DMEM and the cells were treated with a pharmaceutical composition containing a lipopeptide conjugate or pharmaceutically acceptable salt and incubated for 24h (37°C, 5%CO2). The cultures in DMEM (K+) was incubated under the same conditions as described above. After overnight incubation, the media was removed, cells were rinsed with sterile PBS and then 1% paraformaldehyde (PFA) was added. After 20 minutes, the cells were washed with PBS and stained with 0.05% crystal violet solution. The stained cells were washed with PBS and then distilled water was added to each well. The wounded areas were visualized microscopically and photographed by microscope (Zeiss). Photographs from the process of human fibroblasts migration after treatment with a pharmaceutical composition containing a lipopeptide conjugate or a pharmaceutically acceptable salt thereof at a given concentration are shown in Figure 7. Cell migration was analyzed using Imaging Software NIS-Elements Basic Research. Alternatively, the migration rate was expressed as the percentage of area reduction (wound closure) compared to the control K. Data of at least independent experiments (n=3) were shown in Figure 4. […] However, lipopeptide conjugates at a concentration of 0.01µg/mL regulated independently both processes, including fibroblast proliferation and migration.
# The wound area reduced by 10.3-20.7% as cell migration progresses in comparison to control. This effect was statistically significant. The migration of primary fibroblast cells was enhanced after 24 hours of lipopeptide conjugates treatment. […]
# HaCaT [4] = test: Cytotoxicity, LDH release assay; assay type: cell-based, human; settings: 10% decrease in viability, tested 1÷1000 µg/mL
# Experimental: as §1
# primary fibroblast [5] = test: Cytotoxicity, XTT viability assay (MTT in Table 5); assay type: cell-based, human; settings: MTT (so in the source), tested 1÷1000 µg/mL; for EC10: 10% decrease in viability
# Experimental: as §1
# BR1N [6] = test: Cytotoxicity, XTT viability assay (MTT in Table 5); assay type: cell-based, human; settings: MTT (so in the source), 10% decrease in viability, tested 1÷1000 µg/mL
# Experimental: as §1
# BR1N [7] = test: Cytotoxicity, LDH release assay; assay type: cell-based, human; settings: 10% decrease in viability, tested 1÷1000 µg/mL
# Experimental: as §1
Structure (SMILES),EC10 (primary fibroblast [1]),Differences in wound size and coverage of the wound with a new epithelial layer (BALB/c mice),Keratinocyte proliferation [n-times of control] ([2]; 0.01 µg/mL),Keratinocyte proliferation [n-times of control] ([2]; 0.10 µg/mL),EC10 (HaCaT [3]) [µM],HC10 (human erythrocytes) [mM],HC50 (human erythrocytes) [mM],"HC10 (human erythrocytes; red cells of human, 1 h) [µg/mL]","HC50 (human erythrocytes; red cells of human, 1 h) [µg/mL]","Percentage wound area reduction observed at (primary fibroblast cells; primary fibroblast cells, tested at 0.01 and 0.10 µg/mL)",EC10 (HaCaT [4]) [µM],EC10 (primary fibroblast [5]) [µM],EC10 (BR1N [6]) [µM],EC10 (BR1N [7]) [µM],EC50 (primary fibroblast [5]; 50% decrease in viability) [µM],concentration that facilitates primary human fibroblast cell migration (primary fibroblast cells; 24 h treatment) [µg/mL],"reduction of the wound surface (primary fibroblast cells; aqueous solution, 0.01 µg/mL, compared to the control, primary human fibroblast cells) [%]"
CCCCCCCCCCCC(=O)NCC(=O)N1CCC[C@H]1C(=O)N[C@@H](CCCCN)C(N)=O [Lipopeptide conjugate 1] (Lauroyl-Gly-Pro-Lys-NH2),890.9±171. 9 µM,visible from Day 3,1.08±0.04 n-times of control,1.08±0.04 n-times of control,254.1 ± 85.5,0.2962,> 1.0387,142.5,> 500,10-fold increased concentrations,537.1 ± 45.3,–,–,–,–,–,–
"CCCCCCCCCCCC(=O)NCC(=O)N1C[C@H](O)C[C@H]1C(=O)N1C[C@H](O)C[C@H]1C(=O)N[C@@H](CCCCN)C(N)=O [Lipopeptide conjugate 2, N^α-lauroyl-Gly-Hyp-Hyp-Lys-NH2] (Lauroyl-G[Hyp][Hyp]K-NH2)",409.6 ± 66.9 µM,–,–,–,–,0.1858,–,113.4,–,–,346.9 ± 35.0,431.2 ± 34.7,327.6 ± 40.9,432.8 ± 34.5,–,–,–
"CCCCCCCCCCCC(=O)NCC(=O)N1CCC[C@H]1C(=O)N1C[C@H](O)C[C@H]1C(=O)N[C@@H](CCCCN)C(N)=O [Lipopeptide conjugate 3, N^α-lauroyl-Gly-Pro-Hyp-Lys-NH2] (Lauroyl-GP[Hyp]K-NH2)",420.6 ± 42.1 µM,visible from Day 3,1.29±0.17 n-times of control,1.34±0.11 n-times of control,210.2 ± 110.4,1.6169,–,961.1,–,–,171.4 ± 78.3,399.7 ± 35.8,>504.7,–,685 ± 138,< 0.1,18.29
